Assay results as given in patent US6531612B2, “Nitrile derivatives that inhibit cathepsin K” (Hoffman-La Roche Inc., priority 1999, dated 2003).

Key:
Type in all cases: biochemical
[1] = molecular target: Human recombinant cathepsin S (Homo sapiens, UniProt P25774); experiment: cathepsin S inhibitory activity (fluorogenic substrate Z-Val-Val-Arg-MCA); settings: room temperature, enzyme 0.5 nM, substrate 20 μM, pH 6.5
Method: (§1) The inhibitory activity of the compounds against cathepsin K, S, L and B was tested at room temperature in 96-wells opaque white polystyrene plates (Costar). The cathepsin K inhibitory activity was tested as follows:
(§2) 5 μl of an inhibitor diluted in 5 mM sodium phosphate, NaCl 15 mM pH 7.4 containing 1% DMSO (final concentrations: 10−0.0001 μM) were preincubated for 10 min with 35 μl of human recombinant cathepsin K (final concentration: 1 nM) diluted in assay buffer (100 mM sodium acetate pH 5.5 containing 5 mM EDTA and 20 mM cysteine). After addition of 10 μl of the fluorogenic substrate Z-Leu-Arg-MCA diluted in assay buffer (final concentration: 5 μM), increase of fluorescence (excitation at 390 nm and emission at 460 nm) was measured for 7.5 min every 45 sec. The initial velocity (RFU/min) was derived from the linear fit of the 11 reading points.
Cathepsin S inhibitory activity was assayed analogeously to the cathepsin K inhibitory activity, except that the buffer was 100 mM potassium phosphate, 5 mM EDTA, 5 mM DTT (freshly added), 0.01% Triton X-100, pH 6.5 and the fluorogenic substrate was Z-Val-Val-Arg-MCA (Bachem) (final concentration: 20 μM). Human recombinant cathepsin S (Wiederanders et al., Eur. J. Biochem. 1997, 250, 745-750) was used at a final concentration of 0.5 nM.
(§3) The results are given as IC50 values which denote the concentration of the inhibitor at which the enzymatic activity is inhibited by 50%. The IC50 values are determined from a linear regression curve from a logit-log plot.

human liver cathepsin B = molecular target: T1, human liver cathepsin B (Homo sapiens, UniProt P07858); experiment: cathepsin B inhibitory activity; settings: room temperature, enzyme 1 nM, substrate 5 μM, pH 5.5
T1 construct: using human liver cathepsin B (Calbiochem) at a final concentration of 1 nM; purchased Calbiochem; host or cells: human liver (tissue-derived)
Method: as §1, §2
The cathepsin B inhibitory activity was assayed under the same conditions as the cathepsin K inhibitory activity using human liver cathepsin B (Calbiochem) at a final concentration of 1 nM.
as §3

[2] = molecular target: T2, human recombinant cathepsin K (Homo sapiens, UniProt P43235); experiment: cathepsin K inhibitory activity (fluorogenic substrate Z-Leu-Arg-MCA); settings: room temperature, enzyme 1 nM, substrate 5 μM, pH 5.5
T2 sequence (P43235 115-329): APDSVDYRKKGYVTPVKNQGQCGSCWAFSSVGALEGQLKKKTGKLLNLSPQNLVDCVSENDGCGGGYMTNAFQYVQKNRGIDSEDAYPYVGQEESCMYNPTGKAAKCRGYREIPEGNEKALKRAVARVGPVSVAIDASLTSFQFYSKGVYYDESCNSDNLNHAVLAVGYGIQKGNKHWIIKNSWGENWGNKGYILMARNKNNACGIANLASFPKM
Method: as §1, §2, §3

human liver cathepsin L = molecular target: T3, human liver cathepsin L (Homo sapiens, UniProt P07711); experiment: cathepsin L inhibitory activity; settings: room temperature, enzyme 3 nM, substrate 5 μM, pH 5.5
T3 construct: using human liver cathepsin L (Calbiochem) at a final concentration of 3 nM; purchased Calbiochem; host or cells: human liver (tissue-derived)
Method: as §1, §2
The cathepsin L inhibitory activity was assayed under the same conditions as the cathepsin K inhibitory activity using human liver cathepsin L (Calbiochem) at a final concentration of 3 nM.
as §3

T3 sequence (P07711 114-333): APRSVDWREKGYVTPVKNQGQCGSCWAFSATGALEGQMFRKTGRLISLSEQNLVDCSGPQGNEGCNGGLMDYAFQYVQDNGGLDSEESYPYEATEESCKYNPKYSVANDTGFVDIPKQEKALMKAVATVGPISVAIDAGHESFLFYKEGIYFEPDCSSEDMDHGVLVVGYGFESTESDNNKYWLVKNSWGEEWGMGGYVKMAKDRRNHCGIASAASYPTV
Sequence of Human recombinant cathepsin S (P25774 115-331): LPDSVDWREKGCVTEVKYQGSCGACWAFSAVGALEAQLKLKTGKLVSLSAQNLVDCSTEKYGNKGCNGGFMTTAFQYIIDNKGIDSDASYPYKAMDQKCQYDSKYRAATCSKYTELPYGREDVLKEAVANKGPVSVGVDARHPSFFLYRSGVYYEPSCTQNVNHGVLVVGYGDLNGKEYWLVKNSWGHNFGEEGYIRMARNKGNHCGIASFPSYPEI

SMILES	IC50 [1]	IC50 (human liver cathepsin B)	IC50 [2]	IC50 (human liver cathepsin L)
N#CC(NC(=O)[C@@H]1CCCN1C(=O)OCc1ccccc1)c1ccc2c(c1)OCO2 (mixture of isomers) [10.9, (S)-2-[(R)- and (S)-(Benzo[l,3]dioxol-5-yl-cyano-methyl)-carbamoyl]-pyrrolidine-1-carboxylic acid benzyl ester]	> 10000 nM	9500 nM	14 nM	> 10000 nM
COc1ccc(C(C#N)NC(=O)[C@@H]2[C@H](C)CCN2C(=O)OCc2ccccc2)cc1OC (mixture of isomers) [10.11, (2S,3R)-2-{(R)- and (S)-[Cyano-(3,4-dimethoxy-phenyl)-methyl]-carbamoyl}-3-methyl-pyrrolidine-1-carboxylic acid benzyl ester]	> 10000 nM	600 nM	68 nM	> 10000 nM
COc1ccc(C(C#N)NC(=O)[C@@H]2CCCN2C(=S)NCc2ccco2)cc1OC (mixture of isomers) [10.14, (S)-1-[(Furan-2-ylmethyl)-thiocarbamoyl]-pyrrolidine-2-carboxylic acid [(R)- and (S)-cyano-(3,4-dimethoxy-phenyl)-methyl]-amide]	> 10000 nM	6200 nM	64 nM	> 10000 nM
Cc1ccccc1C(C#N)NC(=O)[C@@H]1CCCN1C(=O)OCc1ccccc1 (mixture of isomers) [10.20, (S)-2-[(R)- and (S)-(Cyano-o-tolyl-methyl)-carbamoyl]-pyrrolidine-1-carboxylic acid benzyl ester]	> 10000 nM	> 10000 nM	26 nM	> 10000 nM
N#CC(NC(=O)[C@@H]1CCCN1C(=O)OCc1ccccc1)c1cccc(Br)c1 (mixture of isomers) [10.22, (S)-2-{(R)- and (S)-[(3-Bromo-phenyl)-cyano-methyl]-carbamoyl}-pyrrolidine-1-carboxylic acid benzyl ester]	> 10000 nM	> 10000 nM	16 nM	> 10000 nM
COc1cc(C(C#N)NC(=O)[C@@H]2CCCN2C(=O)OCc2ccccc2)ccc1OCc1ccccc1 (mixture of isomers) [10.28, (S)-2-{(R)- and (S)-[(4-Benzyloxy-3-methoxy-phenyl)-cyano-methyl]-carbamoyl}-pyrrolidine-1-carboxylic acid benzyl ester]	> 10000 nM	> 10000 nM	45 nM	> 10000 nM
N#CC(NC(=O)[C@@H]1CCCN1C(=O)CCC1CCCC1)c1ccc2c(c1)OCO2 (mixture of isomers) [10.32, (S)-1-(3-Cyclopentyl-propionyl)-pyrrolidine-2-carboxylic acid ((R)- and (S)-benzo[l,3]dioxol-5-yl-cyano-methyl)-amide]	> 10000 nM	600 nM	37 nM	> 10000 nM
N#CC(NC(=O)[C@@H]1CCCN1C(=O)COCc1ccccc1)c1ccc2c(c1)OCO2 (mixture of isomers) [10.33, (S)-1-Benzyloxyacetyl-pyrrolidine-2-carboxylic acid ((R)- and (S)-benzo[1,3]dioxol-5-yl-cyano-methyl)-amide]	> 10000 nM	2000 nM	27 nM	> 10000 nM
N#C[C@H](NC(=O)[C@@H]1CCCN1C(=O)OCc1ccccc1)c1ccccc1 [10.2, (S)-2-[(R)-(Cyano-phenyl-methyl)-carbamoyl]-pyrrolidine-1-carboxylic acid benzyl ester]	> 10000 nM	2800 nM	46 nM	> 10000 nM

More lines, now with the values ahead:

IC50 [1]	IC50 (human liver cathepsin B)	IC50 [2]	IC50 (human liver cathepsin L)	SMILES
> 10000 nM	2000 nM	15 nM	7000 nM	N#CC(NC(=O)[C@@H]1CCCN1C(=O)Cc1cccc(Br)c1)c1ccc2c(c1)OCO2 (stereo partly drawn) [11.1, (S)-1-[2-(3-Bromo-phenyl)-ethanoyl]-pyrrolidine-2-carboxylic acid (1-benzo[1,3]dioxol-5-yl-1-cyano-methyl)-amide]
> 10000 nM	600 nM	18 nM	> 10000 nM	COc1ccc(C(C#N)NC(=O)[C@@H]2CCCN2C(=O)Cc2cccc(Br)c2)cc1OC (stereo partly drawn) [11.2, (S)-1-[2-(3-Bromo-phenyl)-ethanoyl]-pyrrolidine-2-carboxylic acid [1-cyano-1-(3,4-dimethoxy-phenyl)-methyl]-amide]
> 10000 nM	4000 nM	26 nM	> 10000 nM	N#CC(NC(=O)[C@@H]1CCCN1C(=O)Cc1ccc(Br)cc1)c1ccc2c(c1)OCO2 (stereo partly drawn) [11.10, (S)-1-[2-(4-Bromo-phenyl)-ethanoyl]-pyrrolidine-2-carboxylic acid (1-benzo[1,3]dioxol-5-yl-1-cyano-methyl)-amide]
